The results in this text go back to publication PMC9145245, “Synthesis and Biochemical Evaluation of 8H-Indeno[1,2-d]thiazole Derivatives as Novel SARS-CoV-2 3CL Protease Inhibitors” (Molecules, 2022).

The experiment deals with SARS-CoV-2 3CL^pro (Severe acute respiratory syndrome coronavirus 2, UniProt P0DTD1). Put plainly: biochemical. The settings on record: for inhibition at 20 µM: 20 μM compound; for inhibitory activity against SARS-CoV-2 3CL^pro (in words, SAR discussion): compared with 7a (7i–7k with 7h). It counts as biochemical.
Where [1] appears, read: recombinant 3CLpro 40 nM, mean ± SD, n = 3.
[2] abbreviates: recombinant 3CLpro 40 nM, substrate 40 μM, mean ± SD, n = 3, read-out: SARS-CoV-2 3CL^pro IC50.

Like-named read-outs stand apart in the source and are kept apart here.

For `CCCCOc1ccc2c(c1)Cc1sc(NC(=O)c3cc(OC)cc(OC)c3)nc1-2` [compound 7b, N-(6-butoxy-8H-indeno[1,2-d]thiazol-2-yl)-3,5-dimethoxybenzamide], the “inhibitory activity against SARS-CoV-2 3CL^pro (in words, SAR discussion)” value (shortened to “inhibitory activity”) was “completely abolished”. The inhibition at 20 µM under setting [1] amounted to 0.5 ± 4.9%. Also, the IC50 under setting [2] was over 20 µM.

As for `COc1ccc2c(c1)Cc1sc(NC(=O)c3cc(OC(C)=O)cc(OC(C)=O)c3)nc1-2` [compound 7g, 5-((6-methoxy-8H-indeno[1,2-d]thiazol-2-yl)carbamoyl)-1,3-phenylene diacetate], the “inhibitory activity” value was “dropped significantly”. Moreover, the inhibition at 20 µM under setting [1] came to 32.6 ± 6.8%. Also, the IC50 under setting [2] was over 20 µM.

Consider `COc1cc(OC)cc(C(=O)Nc2nc3c(s2)Cc2ccc(OC)cc2-3)c1` [compound 4, 3,5-dimethoxy-N-(5-methoxy-8H-indeno[1,2-d]thiazol-2-yl)benzamide], for which the half-inhibitory concentration (IC50) under setting [2] came out at 6.42 ± 0.9 µM.

Consider `COc1cc(OC)cc(C(=O)Nc2nc3c(s2)Cc2cc(Cl)ccc2-3)c1` [compound 7e, N-(6-chloro-8H-indeno[1,2-d]thiazol-2-yl)-3,5-dimethoxybenzamide], for which the “inhibitory activity” value was “completely abolished”. Besides, the inhibition at 20 µM under setting [1] was 27.2 ± 5.3%. The IC50 under setting [2] was over 20 µM.

On to `COc1cc(OC)cc(C(=O)Nc2nc(-c3ccc(OC)cc3C)cs2)c1` [compound 10a], for which the “inhibitory activity” value is “lost inhibitory activities”. Moreover, the inhibition at 20 µM under setting [1] amounted to 1.9 ± 2.1%. In addition, under setting [2], the 50% inhibitory concentration (IC50) is over 20 µM.

`COc1cc(OC)cc(C(=O)Nc2nc3c(s2)Cc2cc(OC)ccc2-3)c1` [compound 7a]: the inhibition at 20 µM under setting [1] was 89.5 ± 2%. Moreover, under setting [2], the half-maximal inhibitory concentration (IC50) was determined as 1.28 ± 0.17 µM.

As for `COc1ccc2c(c1)Cc1sc(NC(=O)c3cccc(F)c3)nc1-2` [compound 7i, 3-fluoro-N-(6-methoxy-8H-indeno[1,2-d]thiazol-2-yl)benzamide], the inhibition at 20 µM under setting [1] is 20.3 ± 4.7%. Moreover, the IC50 under setting [2] was over 20 µM.

Regarding `COc1cc(OC)cc(C(=O)Nc2nc3c(s2)Cc2cc(OCC(C)C)ccc2-3)c1` [compound 7c, N-(6-isobutoxy-8H-indeno[1,2-d]thiazol-2-yl)-3,5-dimethoxybenzamide], the “inhibitory activity” value was “completely abolished”. For the same compound, the inhibition at 20 µM under setting [1] is -3.1 ± 1.7%. The IC50 under setting [2] is over 20 µM.

`COc1ccc2c(c1)Cc1sc(NC(=O)c3cccs3)nc1-2` [compound 7j, N-(6-methoxy-8H-indeno[1,2-d]thiazol-2-yl)thiophene-2-carboxamide] registered an IC50 of over 20 µM. The inhibition at 20 µM under setting [1] came out at 31.9 ± 18.2%.

As for `COc1ccc2c(c1)Cc1sc(NC(=O)c3ccc(Cl)cc3)nc1-2` [compound 7k, 4-chloro-N-(6-methoxy-8H-indeno[1,2-d]thiazol-2-yl)benzamide], the inhibition at 20 µM under setting [1] worked out at 1.5 ± 4.5%. Further, under setting [2], the IC50 is over 20 µM.

For the compound `COc1cccc(C(=O)Nc2nc3c(s2)Cc2cc(OC)ccc2-3)c1` [compound 7h, 3-methoxy-N-(6-methoxy-8H-indeno[1,2-d]thiazol-2-yl)benzamide], the “inhibitory activity” value is recorded as “almost maintained its inhibitory activities”. Further, under setting [1], the inhibition at 20 µM was determined as 72.5 ± 6.1%. Under setting [2], the IC50 was 2.86 ± 0.11 µM.

Turning to `COc1cc(OC)cc(C(=O)Nc2nc3c(s2)Cc2cc(C)ccc2-3)c1` [compound 7d, 3,5-dimethoxy-N-(6-methyl-8H-indeno[1,2-d]thiazol-2-yl)benzamide], the “inhibitory activity” value is “completely abolished”. For the same compound, the inhibition at 20 µM under setting [1] worked out at 21.7 ± 2.2%. Also, under setting [2], the IC50 is over 20 µM.

Consider `COc1cc(OC)cc(C(=O)Nc2nc3c(s2)CCc2cc(OC)ccc2-3)c1` [compound 7l], for which the “inhibitory activity” value was “did not show any inhibitory activity”. Further, the inhibition at 20 µM under setting [1] is -13.1 ± 1.7%. For the same compound, under setting [2], the IC50 was over 20 µM.

`COc1ccc2c(c1)Cc1sc(NC(=O)c3cc(OC)c(OC)c(OC)c3)nc1-2` [compound 7f, 3,4,5-trimethoxy-N-(6-methoxy-8H-indeno[1,2-d]thiazol-2-yl)benzamide]: the “inhibitory activity” value is “dropped significantly”. For the same compound, the inhibition at 20 µM under setting [1] came out at 5 ± 5.6%. Moreover, under setting [2], the IC50 was over 20 µM.

`COc1cc(OC)cc(C(=O)Nc2nc(-c3ccc(OC)c(C)c3)cs2)c1` [compound 10b, 3,5-dimethoxy-N-(4-(4-methoxy-3-methylphenyl)thiazol-2-yl)benzamide]: the “inhibitory activity” value is listed as “lost inhibitory activities”. Moreover, the inhibition at 20 µM under setting [1] was found to be 1.8 ± 3.5%. In addition, the half-inhibitory concentration (IC50) under setting [2] is over 20 µM.

The inhibition is the change of the read-out against control, counted positive when it falls. As usually defined, the IC50 is the concentration at which inhibition is half-maximal.
